Among the data in ChEMBL document CHEMBL3758115, “Bacaryolanes A-C, Rare Bacterial Caryolanes from a Mangrove Endophyte” (2015) are zone of inhibition values, retold here.

The subject of assay [1] is Bacillus spizizenii. The assay can be described thus: Antibacterial activity against Bacillus subtilis ATCC 6633 at 50 ug/disk after 24 hrs. It counts as functional. As to conditions: ATCC 6633, 24 h, read-out: IZ.
Assay [2] deals with Bacillus spizizenii. The experiment in a line: Antibacterial activity against Bacillus subtilis ATCC 6633 at 0.25 ug/disk after 24 hrs. It is filed as functional. The following applies: ATCC 6633, 24 h, read-out: IZ.

For the compound `CC1(C)C[C@@H]2[C@@H]1[C@@H](O)C[C@@]1(C)CCC[C@]2(O)C1`, the zone of inhibition at 50 µg/disc with Bacillus spizizenii [1] came to 10 mm.

Consider `O=C(N[C@H](CO)[C@H](O)c1ccc([N+](=O)[O-])cc1)C(Cl)Cl` [CHLORAMPHENICOL], for which the zone of inhibition at 0.25 µg/disc in the assay on Bacillus spizizenii [2] stood at 28 mm.
